Test results from patent publication US11597724B2, “Herbicidally active 3-phenylisoxazoline-5-carboxamides of tetrahydro and dihydrofuran carboxylic acids and esters” (Bayer Aktiengesellschaft, priority 2017, dated 2023).

Tests used:
Type in all cases: in vivo
Echinochloa crus-galli = assay: Post-emergence herbicidal activity against ECHCG; details: dosage 320 g/ha, rated about 3 weeks after treatment
Method: (§1) ECHCG: Echinochloa crus-galli HORMU: Hordeum murinum 2. Post-Emergence Herbicidal Action and Crop Plant Compatibility Seeds of monocotyledonous and dicotyledonous weeds and crop plants are placed in sandy loam in plastic or wood-fiber pots, covered with soil and cultivated in a greenhouse under controlled growth conditions. 2 to 3 weeks after sowing, the test plants are treated at the one-leaf stage. The compounds of the invention, formulated in the form of wettable powders (WP) or as emulsion concentrates (EC), are then sprayed onto the green parts of the plants as aqueous suspension or emulsion with addition of 0.5% additive at a water application rate of 600 l/ha (converted). After the test plants had been kept in the greenhouse under optimum growth conditions for about 3 weeks, the activity of the preparations is rated visually in comparison to untreated controls. For example, 100% activity=the plants have died, 0% activity=like control plants.

Polygonum convolvulus = assay: Post-emergence herbicidal activity against POLCO; details: dosage 320 g/ha, rated about 3 weeks after treatment
Method: as §1, with “POLCO: Polygonum convolvulus SETVI: Setaria viridis” for “ECHCG: Echinochloa crus-galli HORMU: Hordeum murinum”

Setaria viridis = assay: Post-emergence herbicidal activity against SETVI; details: dosage 320 g/ha, rated about 3 weeks after treatment
Method: as §1, with “POLCO: Polygonum convolvulus SETVI: Setaria viridis” for “ECHCG: Echinochloa crus-galli HORMU: Hordeum murinum”

Amaranthus retroflexus = assay: Post-emergence herbicidal activity against AMARE; details: dosage 320 g/ha, rated about 3 weeks after treatment
Method: as §1, with “AMARE: Amaranthus retroflexus AVEFA: Avena fatua” for “ECHCG: Echinochloa crus-galli HORMU: Hordeum murinum”

Avena fatua = assay: Post-emergence herbicidal activity against AVEFA; details: dosage 320 g/ha, rated about 3 weeks after treatment
Method: as §1, with “AMARE: Amaranthus retroflexus AVEFA: Avena fatua” for “ECHCG: Echinochloa crus-galli HORMU: Hordeum murinum”

Lolium rigidum = assay: Post-emergence herbicidal activity against LOLRI; details: dosage 320 g/ha, rated about 3 weeks after treatment
Method: as §1, with “LOLRI: Lolium rigidum PHBPU: Pharbitis purpurea” for “ECHCG: Echinochloa crus-galli HORMU: Hordeum murinum”

Hordeum murinum = assay: Post-emergence herbicidal activity against HORMU; details: dosage 320 g/ha
Method: as §1

Abutilon theophrasti = assay: Post-emergence herbicidal activity against ABUTH; details: dosage 320 g/ha, rated about 3 weeks after treatment
Method: as §1, with “ABUTH: Abutilon theophrasti ALOMY: Alopecurus myosuroides” for “ECHCG: Echinochloa crus-galli HORMU: Hordeum murinum”

Viola tricolor = assay: Post-emergence herbicidal activity against VIOTR; details: dosage 320 g/ha, rated about 3 weeks after treatment
Method: as §1, with “VIOTR: Viola tricolor” for “ECHCG: Echinochloa crus-galli HORMU: Hordeum murinum”

Alopecurus myosuroides = assay: Post-emergence herbicidal activity against ALOMY; details: dosage 320 g/ha, rated about 3 weeks after treatment
Method: as §1, with “ABUTH: Abutilon theophrasti ALOMY: Alopecurus myosuroides” for “ECHCG: Echinochloa crus-galli HORMU: Hordeum murinum”

Stellaria media = assay: Post-emergence herbicidal activity against STEME; details: dosage 320 g/ha, rated about 3 weeks after treatment
Method: as §1, with “STEME: Stellaria media VERPE: Veronica persica” for “ECHCG: Echinochloa crus-galli HORMU: Hordeum murinum”

Veronica persica = assay: Post-emergence herbicidal activity against VERPE; details: dosage 320 g/ha
Method: as §1, with “STEME: Stellaria media VERPE: Veronica persica” for “ECHCG: Echinochloa crus-galli HORMU: Hordeum murinum”

Pharbitis purpurea = assay: Post-emergence herbicidal activity against PHBPU; details: dosage 320 g/ha, rated about 3 weeks after treatment
Method: as §1, with “LOLRI: Lolium rigidum PHBPU: Pharbitis purpurea” for “ECHCG: Echinochloa crus-galli HORMU: Hordeum murinum”

| Compound | Post-emergence herbicidal activity against ECHCG in % (Echinochloa crus-galli) [%] | Post-emergence herbicidal activity against POLCO in % (Polygonum convolvulus) [%] | Post-emergence herbicidal activity against SETVI in % (Setaria viridis) [%] | Post-emergence herbicidal activity against AMARE in % (Amaranthus retroflexus) [%] | Post-emergence herbicidal activity against AVEFA in % (Avena fatua) [%] | Post-emergence herbicidal activity against LOLRI in % (Lolium rigidum) [%] | Post-emergence herbicidal activity against HORMU in % (Hordeum murinum) [%] | Post-emergence herbicidal activity against ABUTH in % (Abutilon theophrasti) [%] | Post-emergence herbicidal activity against VIOTR in % (Viola tricolor) [%] | Post-emergence herbicidal activity against ALOMY in % (Alopecurus myosuroides) [%] | Post-emergence herbicidal activity against STEME in % (Stellaria media) [%] | Post-emergence herbicidal activity against VERPE in % (Veronica persica) [%] | Post-emergence herbicidal activity against PHBPU in % (Pharbitis purpurea) [%] |
| --- | --- | --- | --- | --- | --- | --- | --- | --- | --- | --- | --- | --- | --- |
| C=CC1(C(=O)NC2COC(C(=O)OCc3ccc(OC)cc3)C2)CC(c2cc(F)cc(F)c2)=NO1 (mixture of isomers) [I-54] | 90 | 90 | 90 | 80 | 90 | 90 | 90 | 90 | 90 | 90 | 90 | 90 | 90 |
| C=CC1(C(=O)NC2COC(C(=O)OCc3cccc(F)c3)C2)CC(c2cc(F)cc(F)c2)=NO1 (mixture of isomers) [I-52] | 90 | 90 | 90 | 90 | 90 | 90 | 90 | 90 | 90 | 90 | 90 | 90 | 90 |
| CC1(C(=O)NC2COC(C(=O)OCc3cccc(F)c3)C2)CC(c2cc(F)cc(F)c2)=NO1 (mixture of isomers) [I-53] | 90 | 90 | 90 | 90 | 90 | 90 | 90 | 90 | 90 | 90 | 90 | 90 | 90 |
| CC(C)OC(=O)C1CC(NC(=O)C2(C(C)(F)F)CC(c3cc(F)cc(F)c3)=NO2)CO1 (stereo not shown) [I-51] | 90 | 90 | 90 | 80 | 100 | 90 | 90 | 80 | 90 | 100 | 90 | 90 | 90 |
